Source: patent US8901159B2, “Inhibition of inflammation by simultaneous blockade of multiple prostanoid receptors” (Allergan, Inc., priority 2010, dated 2014)

Tests used:
[1] = tested on: human recombinant prostanoid receptor (DP1, EP1-4, FP, IP and TP); conditions: stated in words; IUPHAR database referred to; cited from earlier work
[2] = biological target: T1, human prostanoid DP1 receptor (Homo sapiens, UniProt Q13258); test: PG antagonist activity, Ca2+ signal in human recombinant prostanoid receptor stable cell line; type: cell-based; conditions: parameter and unit not given
T1 construct: expressed in transfected cells
T1 sequence (Q13258 1-359): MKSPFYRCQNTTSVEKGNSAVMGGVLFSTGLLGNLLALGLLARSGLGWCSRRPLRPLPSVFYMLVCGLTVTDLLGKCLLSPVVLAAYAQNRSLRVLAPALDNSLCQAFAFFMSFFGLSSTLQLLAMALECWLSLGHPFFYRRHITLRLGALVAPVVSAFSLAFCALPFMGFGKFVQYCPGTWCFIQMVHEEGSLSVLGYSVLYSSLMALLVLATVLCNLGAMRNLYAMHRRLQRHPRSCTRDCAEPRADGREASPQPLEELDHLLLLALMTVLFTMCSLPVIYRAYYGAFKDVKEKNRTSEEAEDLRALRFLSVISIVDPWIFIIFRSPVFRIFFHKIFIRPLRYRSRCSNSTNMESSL
Description: (§1) The above compounds were tested for PG antagonist activity as follows using human recombinant prostanoid receptor (DP1, EP1-4, FP, IP and TP) stable cell lines:
(§2) In order to measure the response of Gs and Gi coupled prostanoid receptors as a Ca^2+ signal, chimeric G protein cDNAs were used. Stable cell lines over-expressing human prostanoid DP1, EP1-4, FP, IP, and TP receptors were established as described in U.S. Ser. No. 61/410,153.

[3] = biological target: T2, human prostanoid EP1 receptor (Homo sapiens, UniProt P34995); test: as above; type: cell-based; conditions: parameter and unit not given
T2 construct: expressed in transfected cells
T2 sequence (P34995 1-402): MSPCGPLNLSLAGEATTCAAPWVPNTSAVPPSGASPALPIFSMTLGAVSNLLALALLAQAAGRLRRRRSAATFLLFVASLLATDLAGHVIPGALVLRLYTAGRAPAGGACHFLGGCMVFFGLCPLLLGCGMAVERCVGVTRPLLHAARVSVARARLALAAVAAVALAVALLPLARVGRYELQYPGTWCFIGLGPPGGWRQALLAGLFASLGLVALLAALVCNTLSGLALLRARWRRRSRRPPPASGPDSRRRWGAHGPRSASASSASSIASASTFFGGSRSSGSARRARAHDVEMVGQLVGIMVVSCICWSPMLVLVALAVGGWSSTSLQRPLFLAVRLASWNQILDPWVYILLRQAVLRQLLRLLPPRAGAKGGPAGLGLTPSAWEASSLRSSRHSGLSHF
Description: as §1, §2

[4] = biological target: T3, human prostanoid EP4 receptor (Homo sapiens, UniProt P35408); test: as above; type: cell-based; conditions: parameter and unit not given
T3 construct: expressed in transfected cells
Description: as §1, §2

[5] = biological target: T4, human prostanoid FP receptor (Homo sapiens, UniProt P43088); test: as above; type: cell-based; conditions: parameter and unit not given
T4 construct: expressed in transfected cells
Description: as §1, §2

[6] = biological target: T5, human prostanoid TP receptor (Homo sapiens, UniProt P21731); test: as above; type: cell-based; conditions: parameter and unit not given
T5 construct: expressed in transfected cells
T5 sequence (P21731 1-343): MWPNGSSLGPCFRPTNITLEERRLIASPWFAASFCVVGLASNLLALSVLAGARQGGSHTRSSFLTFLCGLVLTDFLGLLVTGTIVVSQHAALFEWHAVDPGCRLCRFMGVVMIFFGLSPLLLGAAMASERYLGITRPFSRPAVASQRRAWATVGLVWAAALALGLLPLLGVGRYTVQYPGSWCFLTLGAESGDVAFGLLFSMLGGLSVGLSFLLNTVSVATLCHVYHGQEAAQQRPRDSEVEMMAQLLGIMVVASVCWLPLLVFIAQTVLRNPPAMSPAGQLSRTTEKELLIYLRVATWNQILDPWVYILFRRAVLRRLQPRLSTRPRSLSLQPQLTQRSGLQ
Description: as §1, §2

[7] = biological target: T6, human prostanoid EP3 receptor (Homo sapiens, UniProt P43115); test: as above; type: cell-based; conditions: parameter and unit not given
T6 construct: expressed in transfected cells
T6 sequence (P43115 1-390): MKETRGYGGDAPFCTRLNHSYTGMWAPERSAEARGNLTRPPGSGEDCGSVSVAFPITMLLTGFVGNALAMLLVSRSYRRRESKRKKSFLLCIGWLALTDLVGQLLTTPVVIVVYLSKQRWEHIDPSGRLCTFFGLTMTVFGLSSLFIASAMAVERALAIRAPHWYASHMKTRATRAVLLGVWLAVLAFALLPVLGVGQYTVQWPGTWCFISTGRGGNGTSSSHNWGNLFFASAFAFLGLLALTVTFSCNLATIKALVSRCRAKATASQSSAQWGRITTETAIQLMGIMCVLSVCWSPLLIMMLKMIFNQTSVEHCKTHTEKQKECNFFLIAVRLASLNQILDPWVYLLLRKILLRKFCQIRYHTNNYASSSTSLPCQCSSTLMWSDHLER
Description: as §1, §2

[8] = biological target: T7, human prostanoid IP receptor (Homo sapiens, UniProt P43119); test: as above; type: cell-based; conditions: parameter and unit not given
T7 construct: expressed in transfected cells
Description: as §1, §2

[9] = tested on: Experimental autoimmune uveoretinitis (EAU); test: Rat Experimental Autoimmune Uveoretinitis (EAU) model; type: in vivo; conditions: FIG. 14
[10] = tested on: laser-induced neovascularization (CNV); test: Rat laser-induced neovascularization (CNV) model; type: in vivo; conditions: formulated in 70% PEG, FIG. 15, vs vehicle, EXAMPLE 8, SC-51322 and their combination
Description: The compound of Example 1 was also evaluated for activity in an in-vivo Rat laser-induced neovascularization (CNV) model.
In this test, compounds were formulated in 70% polyethylene glycol (PEG). CNV is induced by laser burn.

[11] = tested on: human recombinant prostanoid receptor (DP1, EP1-4, FP, IP and TP); test: Prostanoid receptor blockade profile stated in words; type: cell-based
Description: as §1, §2

[12] = biological target: T8, human prostanoid EP2 receptor (Homo sapiens, UniProt P43116); test: PG antagonist activity, Ca2+ signal in human recombinant prostanoid receptor stable cell line; type: cell-based; conditions: parameter and unit not given
T8 construct: expressed in transfected cells
Description: as §1, §2

[13] = rat EAU, vs all of the comparators

T4 sequence (P43088 whole entry): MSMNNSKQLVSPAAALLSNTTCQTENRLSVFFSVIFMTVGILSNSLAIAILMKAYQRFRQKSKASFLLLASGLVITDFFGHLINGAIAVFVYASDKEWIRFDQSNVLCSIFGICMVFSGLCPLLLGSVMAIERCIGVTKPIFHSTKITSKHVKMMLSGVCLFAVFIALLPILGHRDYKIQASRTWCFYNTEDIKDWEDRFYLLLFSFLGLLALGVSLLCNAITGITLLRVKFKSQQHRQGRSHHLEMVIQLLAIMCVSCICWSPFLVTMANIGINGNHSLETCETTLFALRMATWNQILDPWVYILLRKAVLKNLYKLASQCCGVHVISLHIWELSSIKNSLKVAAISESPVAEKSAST
T3 sequence (P35408 whole entry): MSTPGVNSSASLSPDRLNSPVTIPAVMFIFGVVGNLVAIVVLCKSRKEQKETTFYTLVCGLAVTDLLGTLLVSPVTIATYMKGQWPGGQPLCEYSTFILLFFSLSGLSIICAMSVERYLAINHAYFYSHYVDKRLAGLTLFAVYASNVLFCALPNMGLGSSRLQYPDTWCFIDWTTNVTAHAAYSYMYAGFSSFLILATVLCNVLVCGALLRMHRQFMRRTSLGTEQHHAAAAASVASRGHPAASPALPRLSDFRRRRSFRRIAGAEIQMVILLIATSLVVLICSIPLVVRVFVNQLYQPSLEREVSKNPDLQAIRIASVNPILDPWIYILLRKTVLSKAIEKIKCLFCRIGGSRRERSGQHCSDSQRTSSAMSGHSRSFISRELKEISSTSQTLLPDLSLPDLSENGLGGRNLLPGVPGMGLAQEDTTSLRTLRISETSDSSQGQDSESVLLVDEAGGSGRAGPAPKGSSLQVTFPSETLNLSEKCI
T7 sequence (P43119 whole entry): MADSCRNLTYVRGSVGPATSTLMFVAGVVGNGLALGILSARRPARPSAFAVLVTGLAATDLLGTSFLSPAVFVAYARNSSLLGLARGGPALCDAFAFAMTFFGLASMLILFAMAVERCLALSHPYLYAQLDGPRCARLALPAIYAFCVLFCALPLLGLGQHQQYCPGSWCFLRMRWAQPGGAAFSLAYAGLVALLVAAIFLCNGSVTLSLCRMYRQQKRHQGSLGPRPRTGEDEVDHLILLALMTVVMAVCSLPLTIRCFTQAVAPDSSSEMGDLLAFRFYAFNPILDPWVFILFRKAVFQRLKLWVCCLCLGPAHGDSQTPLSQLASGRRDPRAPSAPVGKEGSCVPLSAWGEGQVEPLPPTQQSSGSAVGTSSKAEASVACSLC
T8 sequence (P43116 whole entry): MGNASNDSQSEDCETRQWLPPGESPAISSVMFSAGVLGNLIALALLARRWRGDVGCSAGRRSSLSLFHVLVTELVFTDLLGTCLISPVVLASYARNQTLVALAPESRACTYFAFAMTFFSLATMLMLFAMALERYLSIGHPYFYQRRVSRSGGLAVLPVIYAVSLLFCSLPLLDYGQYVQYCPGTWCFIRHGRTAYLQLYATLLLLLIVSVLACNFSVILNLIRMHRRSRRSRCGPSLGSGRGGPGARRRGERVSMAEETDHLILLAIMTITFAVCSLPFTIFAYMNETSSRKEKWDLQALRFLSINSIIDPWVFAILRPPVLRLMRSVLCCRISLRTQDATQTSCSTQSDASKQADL

| SMILES | prostanoid receptor blockade profile of comparator [1] | DP (PG antagonist activity) [2] | EP1 (PG antagonist activity) [3] | EP4 (PG antagonist activity) [4] | FP (PG antagonist activity) [5] | TP (PG antagonist activity) [6] | EP3 (PG antagonist activity) [7] | IP (PG antagonist activity) [8] | clinical score ([9]; rat EAU induced by M18 peptide, vs vehicle, EXAMPLE 8, SC-51322 and their combination) | amount of invasive cells in the aqueous humor [9, 13] | amount of protein in the aqueous humor [9, 13] | clinical score (angiostatic efficacy) [10] | prostanoid receptor selectivity / blockade profile [11] | EP2 (PG antagonist activity) [12] |
| --- | --- | --- | --- | --- | --- | --- | --- | --- | --- | --- | --- | --- | --- | --- |
| O=C(CCSCc1ccco1)NNC(=O)N1Cc2ccccc2Oc2ccc(Cl)cc21 [SC-51322] | blocks the EP1 receptor, only |  |  |  |  |  |  |  |  |  |  |  |  |  |
| CCCCCCCCCNC(=O)c1coc(C2C3CCC(O3)C2Cc2cc(F)ccc2/C=C/C(=O)O)n1 (stereo not drawn) [Example 3] |  | 270 | 4100 | 180 | 230 | <1 |  |  |  |  |  |  |  |  |
| CCCCCCCCNC(=O)c1coc(C2C3CCC(O3)C2Cc2cc(F)ccc2CCC(=O)O)n1 (stereo not drawn) [Example 5] |  | 55 | 1400 | 160 | 25 | <1 | 4700 | 2400 |  |  |  |  |  |  |
| O=C(O)CCc1ccc(F)cc1CC1C2CCC(O2)C1c1nc(C(=O)NCCCCC2CCCCC2)co1 (stereo not drawn) [Example 6] |  | 50 | 1750 | 170 | 35 | <1 |  |  |  |  |  |  |  |  |
| O=C(O)/C=C/c1ccc(F)cc1C[C@@H]1C(c2nc(C(=O)NCCCCC3CCCCC3)co2)C2CC[C@H]1O2 (stereo partly drawn) [Example 1, (E)-3-(2R-{3R-[4-(4-Cyclohexyl-butylcarbamoyl)-oxazol-2-yl]-7-oxa-bicyclo[2.2.1]hept-2-ylmethyl}-4-fluoro-phenyl)-acrylic acid] |  | 71 | 380 | 60 | 59 | <1 | 5500 |  | better clinical score than any of the comparators except the combination | lower amount | lower amount | better clinical score than any of the comparators except the combination |  |  |
| CCCCCCCCNC(=O)c1coc(C2C3CCC(O3)C2Cc2cc(F)ccc2/C=C/C(=O)O)n1 (stereo not drawn) [Example 2] |  | 220 | 2000 | 120 | 300 | <1 |  |  |  |  |  |  |  |  |
| O=C(O)CCc1ccc(F)cc1C[C@H]1[C@@H]2CCC(O2)[C@H]1c1nc(C(=O)NCCCCC2CCCCC2)co1 [EXAMPLE 8, 3-(2-{(1S,2R,3S)-3-[4-(4-Cyclohexyl-butylcarbamoyl)-oxazol-2-yl]-7-oxa-bicyclo[2.2.1]hept-2-ylmethyl}-4-fluoro-phenyl)-propionic acid] |  |  |  |  |  |  |  |  |  |  |  |  | selective for DP1, EP4, FP and TP receptors |  |
| CCCCCCCCCNC(=O)c1coc(C2C3CC[C@@H](O3)[C@@H]2Cc2cc(F)ccc2CCC(=O)O)n1 (stereo partly drawn) [Example 4, 3-{2R-[3R-(4-Nonylcarbamoyl-oxazol-2-yl)-7-oxa-bicyclo[2.2.1]hept-2-ylmethyl]-4-fluoro-phenyl}-propionic acid] |  | 17 | 660 | 92 | 12 | <1 | 4100 | 1900 |  |  |  |  |  | 4300 |
